Tests used:
Oryctolagus cuniculus [1] = experiment: Hyperthermic activity in New Zealand rabbit at 0.25 to 21.2 umol/kg administered in marginal ear vein as solution of amine hydrochloride in nonpyrogenic saline by time-temperature curve integration method relative to l-(2,5-dimethoxy-4-methylphenyl)-2-aminopropane; type: functional
Brain [2] = experiment: Drug uptake in Sprague-Dawley rat brain assessed as R to S enantiomeric ratio at 30 mg/kg, ip after 30 mins by electron-capture gas chromatographic analysis; type: ADME, organism-based; set-up: dose 30 mg/kg, route intraperitoneal; conditions: in vivo, 0.5 h
Brain [3] = experiment: Drug uptake in Sprague-Dawley rat brain assessed as R to S enantiomeric ratio at 30 mg/kg, ip after 60 mins by electron-capture gas chromatographic analysis; type: ADME, organism-based; set-up: dose 30 mg/kg, route intraperitoneal; conditions: in vivo, 1 h
Oryctolagus cuniculus [4] = experiment: Hyperthermic activity in New Zealand rabbit assessed as mean maximum rise in rectal temperature at 14.2 umol/kg administered in marginal ear vein as solution of amine hydrochloride in nonpyrogenic saline; type: functional, Rectum
Oryctolagus cuniculus [5] = experiment: Hyperthermic activity in New Zealand rabbit assessed as increase in rectal temperature measured as time to reach peak effect at 14.2 umol/kg administered in marginal ear vein as solution of amine hydrochloride in nonpyrogenic saline; type: functional, Rectum
Oryctolagus cuniculus [6] = experiment: Hyperthermic activity in New Zealand rabbit assessed as mean maximum rise in rectal temperature at 0.25 to 21.2 umol/kg administered in marginal ear vein as solution of amine hydrochloride in nonpyrogenic saline relative to l-(2,5-dimethoxy-4-methylphenyl)-2-aminopropane; type: functional, Rectum
Oryctolagus cuniculus [7] = experiment: Hyperthermic activity in New Zealand rabbit assessed as increase in rectal temperature measured as time to reach peak effect at 7.1 umol/kg administered in marginal ear vein as solution of amine hydrochloride in nonpyrogenic saline; type: functional, Rectum
Brain [8] = experiment: Drug uptake in Sprague-Dawley rat brain assessed as R to S enantiomeric ratio at 30 mg/kg, ip after 15 mins by electron-capture gas chromatographic analysis; type: ADME, organism-based; set-up: dose 30 mg/kg, route intraperitoneal; conditions: in vivo, 0.25 h
Oryctolagus cuniculus [9] = experiment: Hyperthermic activity in New Zealand rabbit assessed as mean maximum rise in rectal temperature at 7.1 umol/kg administered in marginal ear vein as solution of amine hydrochloride in nonpyrogenic saline; type: functional, Rectum
Oryctolagus cuniculus [10] = experiment: Hyperthermic activity in New Zealand rabbit assessed as dose required for 1 degC rise in rectal temperature administered in marginal ear vein as solution of amine hydrochloride in nonpyrogenic saline; type: functional, Rectum
Oryctolagus cuniculus [11] = experiment: Hyperthermic activity in New Zealand rabbit assessed as mean maximum rise in rectal temperature at 5.3 umol/kg administered in marginal ear vein as solution of amine hydrochloride in nonpyrogenic saline; type: functional, Rectum
Oryctolagus cuniculus [12] = experiment: Hyperthermic activity in New Zealand rabbit assessed as increase in rectal temperature measured as time to reach peak effect at 5.3 umol/kg administered in marginal ear vein as solution of amine hydrochloride in nonpyrogenic saline; type: functional, Rectum
Oryctolagus cuniculus [13] = experiment: Hyperthermic activity in New Zealand rabbit assessed as increase in rectal temperature measured as time to reach peak effect at 21.3 umol/kg administered in marginal ear vein as solution of amine hydrochloride in nonpyrogenic saline; type: functional, Rectum
Oryctolagus cuniculus [14] = experiment: Hyperthermic activity in New Zealand rabbit assessed as increase in rectal temperature measured as time to reach peak effect at 10.6 umol/kg administered in marginal ear vein as solution of amine hydrochloride in nonpyrogenic saline; type: functional, Rectum
Oryctolagus cuniculus [15] = experiment: Hyperthermic activity in New Zealand rabbit assessed as mean maximum rise in rectal temperature at 21.3 umol/kg administered in marginal ear vein as solution of amine hydrochloride in nonpyrogenic saline; type: functional, Rectum
Oryctolagus cuniculus [16] = experiment: Hyperthermic activity in New Zealand rabbit assessed as mean maximum rise in rectal temperature at 10.6 umol/kg administered in marginal ear vein as solution of amine hydrochloride in nonpyrogenic saline; type: functional, Rectum
Oryctolagus cuniculus [17] = experiment: Hyperthermic activity in New Zealand rabbit assessed as increase in rectal temperature measured as time to reach peak effect at 0.22 umol/kg administered in marginal ear vein as solution of amine hydrochloride in nonpyrogenic saline; type: functional, Rectum
Oryctolagus cuniculus [18] = experiment: Hyperthermic activity in New Zealand rabbit assessed as mean maximum rise in rectal temperature at 2 umol/kg administered in marginal ear vein as solution of amine hydrochloride in nonpyrogenic saline; type: functional, Rectum
Oryctolagus cuniculus [19] = experiment: Hyperthermic activity in New Zealand rabbit assessed as mean maximum rise in rectal temperature at 0.67 umol/kg administered in marginal ear vein as solution of amine hydrochloride in nonpyrogenic saline; type: functional, Rectum
Oryctolagus cuniculus [20] = experiment: Hyperthermic activity in New Zealand rabbit assessed as increase in rectal temperature measured as time to reach peak effect at 2 umol/kg administered in marginal ear vein as solution of amine hydrochloride in nonpyrogenic saline; type: functional, Rectum
Oryctolagus cuniculus [21] = experiment: Hyperthermic activity in New Zealand rabbit assessed as increase in rectal temperature measured as time to reach peak effect at 0.67 umol/kg administered in marginal ear vein as solution of amine hydrochloride in nonpyrogenic saline; type: functional, Rectum
Oryctolagus cuniculus [22] = experiment: Hyperthermic activity in New Zealand rabbit assessed as mean maximum rise in rectal temperature at 0.22 umol/kg administered in marginal ear vein as solution of amine hydrochloride in nonpyrogenic saline; type: functional, Rectum
Brain [23] = experiment: Drug uptake in Sprague-Dawley rat brain assessed as R to S enantiomeric ratio at 30 mg/kg, ip after 120 mins by electron-capture gas chromatographic analysis; type: ADME, organism-based; set-up: dose 30 mg/kg, route intraperitoneal; conditions: in vivo, 2 h
Oryctolagus cuniculus [24] = experiment: Hyperthermic activity in New Zealand rabbit assessed as increase in rectal temperature measured as time to reach peak effect at 0.25 umol/kg administered in marginal ear vein as solution of amine hydrochloride in nonpyrogenic saline; type: functional, Rectum
Brain [25] = experiment: Drug uptake in Sprague-Dawley rat brain assessed as R to S enantiomeric ratio at 15 mg/kg, ip after 5 mins by electron-capture gas chromatographic analysis; type: ADME, organism-based; set-up: dose 15 mg/kg, route intraperitoneal; conditions: in vivo
Oryctolagus cuniculus [26] = experiment: Hyperthermic activity in New Zealand rabbit assessed as increase in rectal temperature measured as time to reach peak effect at 1 umol/kg administered in marginal ear vein as solution of amine hydrochloride in nonpyrogenic saline; type: functional, Rectum
Brain [27] = experiment: Drug uptake in Sprague-Dawley rat brain assessed as R to S enantiomeric ratio at 15 mg/kg, ip after 15 mins by electron-capture gas chromatographic analysis; type: ADME, organism-based; set-up: dose 15 mg/kg, route intraperitoneal; conditions: in vivo, 0.25 h
Oryctolagus cuniculus [28] = experiment: Hyperthermic activity in New Zealand rabbit assessed as mean maximum rise in rectal temperature at 0.50 umol/kg administered in marginal ear vein as solution of amine hydrochloride in nonpyrogenic saline; type: functional, Rectum
Oryctolagus cuniculus [29] = experiment: Hyperthermic activity in New Zealand rabbit assessed as increase in rectal temperature measured as time to reach peak effect at 0.50 umol/kg administered in marginal ear vein as solution of amine hydrochloride in nonpyrogenic saline; type: functional, Rectum
Brain [30] = experiment: Drug uptake in Sprague-Dawley rat brain assessed as R to S enantiomeric ratio at 15 mg/kg, ip after 120 mins by electron-capture gas chromatographic analysis; type: ADME, organism-based; set-up: dose 15 mg/kg, route intraperitoneal; conditions: in vivo, 2 h
Oryctolagus cuniculus [31] = experiment: Hyperthermic activity in New Zealand rabbit assessed as mean maximum rise in rectal temperature at 1 umol/kg administered in marginal ear vein as solution of amine hydrochloride in nonpyrogenic saline; type: functional, Rectum
Brain [32] = experiment: Drug uptake in Sprague-Dawley rat brain assessed as R to S enantiomeric ratio at 15 mg/kg, ip after 30 mins by electron-capture gas chromatographic analysis; type: ADME, organism-based; set-up: dose 15 mg/kg, route intraperitoneal; conditions: in vivo, 0.5 h
Brain [33] = experiment: Drug uptake in Sprague-Dawley rat brain assessed as R to S enantiomeric ratio at 15 mg/kg, ip after 60 mins by electron-capture gas chromatographic analysis; type: ADME, organism-based; set-up: dose 15 mg/kg, route intraperitoneal; conditions: in vivo, 1 h
Oryctolagus cuniculus [34] = experiment: Hyperthermic activity in New Zealand rabbit assessed as mean maximum rise in rectal temperature at 0.25 umol/kg administered in marginal ear vein as solution of amine hydrochloride in nonpyrogenic saline; type: functional, Rectum

COc1cc(CC(C)N)c(SC)cc1OC.Cl (racemic)
fold change (FC) (Oryctolagus cuniculus [1]): 0.022
Ratio (Brain [2]): 1.09
Ratio (Brain [3]): 1.43
T (Oryctolagus cuniculus [4]): 1.01 °C
Time (Oryctolagus cuniculus [5]): 75 min
fold change (FC) (Oryctolagus cuniculus [6]): 0.017
Time (Oryctolagus cuniculus [7]): 105 min
Ratio (Brain [8]): 1.14
T (Oryctolagus cuniculus [9]): 0.82 °C
Activity (Oryctolagus cuniculus [10]): 14 µmol/kg

COc1cc(OC)c(SC)cc1CC(C)N.Cl (racemic)
T (Oryctolagus cuniculus [11]): 0.6 °C
Time (Oryctolagus cuniculus [12]): 120 min
fold change (FC) (Oryctolagus cuniculus [1]): 0.039
Ratio (Brain [2]): 1.11
Time (Oryctolagus cuniculus [13]): 180 min
Ratio (Brain [3]): 1.35
Time (Oryctolagus cuniculus [14]): 135 min
fold change (FC) (Oryctolagus cuniculus [6]): 0.028
T (Oryctolagus cuniculus [15]): 1.62 °C
Ratio (Brain [8]): 1.1
Activity (Oryctolagus cuniculus [10]): 9.77 µmol/kg
T (Oryctolagus cuniculus [16]): 1.09 °C

COc1cc(SC)c(OC)cc1CC(C)N.Cl (racemic)
Time (Oryctolagus cuniculus [17]): 120 min
fold change (FC) (Oryctolagus cuniculus [1]): 0.64
Ratio (Brain [2]): 1.14
T (Oryctolagus cuniculus [18]): 2.31 °C
T (Oryctolagus cuniculus [19]): 1.15 °C
Ratio (Brain [3]): 1.23
fold change (FC) (Oryctolagus cuniculus [6]): 0.54
Time (Oryctolagus cuniculus [20]): 195 min
Ratio (Brain [8]): 1.54
Time (Oryctolagus cuniculus [21]): 165 min
T (Oryctolagus cuniculus [22]): 0.6 °C
Ratio (Brain [23]): 1.62
Activity (Oryctolagus cuniculus [10]): 0.5 µmol/kg

COc1cc(CC(C)N)c(OC)cc1C.Cl (racemic)
Time (Oryctolagus cuniculus [24]): 135 min
fold change (FC) (Oryctolagus cuniculus [1]): 1
Ratio (Brain [25]): 0.95
Time (Oryctolagus cuniculus [26]): 165 min
Ratio (Brain [27]): 1.06
fold change (FC) (Oryctolagus cuniculus [6]): 1
T (Oryctolagus cuniculus [28]): 1.98 °C
Time (Oryctolagus cuniculus [29]): 195 min
Ratio (Brain [30]): 1.34
T (Oryctolagus cuniculus [31]): 2.85 °C
Ratio (Brain [32]): 1.46
Ratio (Brain [33]): 1.55
T (Oryctolagus cuniculus [34]): 0.8 °C
Activity (Oryctolagus cuniculus [10]): 0.27 µmol/kg

CCN(CC)C(=O)[C@@H]1C=C2c3cccc4[nH]cc(c34)C[C@H]2N(C)C1 [LYSERGIDE]
fold change (FC) (Oryctolagus cuniculus [6]): 33

COc1cc(CCN)cc(OC)c1OC [MESCALINE]
fold change (FC) (Oryctolagus cuniculus [6]): 0.0006

From ChEMBL document CHEMBL3244120, “Monomethylthio analogues of 1-(2,4,5-trimethoxyphenyl)-2-aminopropane” (J Med Chem, 1977)
